“And” between values parts separate entries of the source, which are not always exact repeats. Equal entries are not always repeated. ± gives the expanded uncertainty stated by the source.
Test: excess molar enthalpy (molar enthalpy of mixing); xn = mol fraction of the nth substance listed
Details: Liquid, Flow calorimetry

In the case of `CC(=O)O` [acetic acid] + CCOC(C)=O, the excess molar enthalpy (323.15 K, 1548 kPa, x2 = 0.0148) is reported as -0.00177 ± 0.00151 kcal/mol, the excess molar enthalpy (323.15 K, 1548 kPa, x2 = 0.03) is reported as -0.00354 ± 0.00234 kcal/mol and the excess molar enthalpy (323.15 K, 1548 kPa, x2 = 0.0613) is reported as -0.00636 ± 0.00263 kcal/mol. For the same molecule, the excess molar enthalpy (323.15 K, 1548 kPa, x2 = 0.1108) was -0.00925 ± 0.00182 kcal/mol, the excess molar enthalpy (323.15 K, 1548 kPa, x2 = 0.1637) was -0.0104 ± 0.00148 kcal/mol and the excess molar enthalpy (323.15 K, 1548 kPa, x2 = 0.2403) was -0.00942 ± 0.00184 kcal/mol. The excess molar enthalpy (323.15 K, 1548 kPa, x2 = 0.3246) was -0.00631 ± 0.00287 kcal/mol, the excess molar enthalpy (323.15 K, 1548 kPa, x2 = 0.4179) was -0.00131 ± 0.00359 kcal/mol and the excess molar enthalpy (323.15 K, 1548 kPa, x2 = 0.5217) was 0.00523 ± 0.00406 kcal/mol. For the same molecule, the excess molar enthalpy (323.15 K, 1548 kPa, x2 = 0.6379) was 0.0129 ± 0.00359 kcal/mol, the excess molar enthalpy (323.15 K, 1548 kPa, x2 = 0.7347) was 0.0174 ± 0.00201 kcal/mol and the excess molar enthalpy (323.15 K, 1548 kPa, x2 = 0.8409) was 0.0188 ± 0.0012 kcal/mol. The excess molar enthalpy (323.15 K, 1548 kPa, x2 = 0.9178) was 0.0152 ± 0.00287 kcal/mol and the excess molar enthalpy (323.15 K, 1548 kPa, x2 = 0.9582) was 0.0105 ± 0.00311 kcal/mol.
Molecule `CCOC(C)=O` [ethyl acetate] + O has an excess molar enthalpy (353.15 K, 1272 kPa, x1 = 0.0096) of 0.005 ± 0.00478 kcal/mol, an excess molar enthalpy (353.15 K, 1272 kPa, x1 = 0.0201) of 0.0107 ± 0.00932 kcal/mol and an excess molar enthalpy (353.15 K, 1272 kPa, x1 = 0.0441) of 0.0219 ± 0.0206 kcal/mol. The excess molar enthalpy (353.15 K, 1272 kPa, x1 = 0.058) was 0.0284 ± 0.0287 kcal/mol, the excess molar enthalpy (353.15 K, 1272 kPa, x1 = 0.0733) was 0.0356 ± 0.0287 kcal/mol and the excess molar enthalpy (353.15 K, 1272 kPa, x1 = 0.0905) was 0.0435 kcal/mol and 0.0437 kcal/mol. For the same molecule, the excess molar enthalpy (353.15 K, 1272 kPa, x1 = 0.1096) was 0.0526 ± 0.0287 kcal/mol, the excess molar enthalpy (353.15 K, 1272 kPa, x1 = 0.1313) was 0.0631 ± 0.0287 kcal/mol and the excess molar enthalpy (353.15 K, 1272 kPa, x1 = 0.1559) was 0.0743 ± 0.0287 kcal/mol. The excess molar enthalpy (353.15 K, 1272 kPa, x1 = 0.1842) was 0.087 ± 0.0287 kcal/mol, the excess molar enthalpy (353.15 K, 1272 kPa, x1 = 0.2169) was 0.103 ± 0.0287 kcal/mol and the excess molar enthalpy (353.15 K, 1272 kPa, x1 = 0.2554) was 0.121 ± 0.0287 kcal/mol. It also gave an excess molar enthalpy (353.15 K, 1272 kPa, x1 = 0.3012) of 0.142 ± 0.0287 kcal/mol, an excess molar enthalpy (353.15 K, 1272 kPa, x1 = 0.3565) of 0.168 ± 0.0287 kcal/mol and an excess molar enthalpy (353.15 K, 1272 kPa, x1 = 0.4249) of 0.2 ± 0.0287 kcal/mol. The excess molar enthalpy (353.15 K, 1272 kPa, x1 = 0.5114) was 0.24 ± 0.0287 kcal/mol, the excess molar enthalpy (353.15 K, 1272 kPa, x1 = 0.5639) was 0.264 ± 0.0287 kcal/mol and the excess molar enthalpy (353.15 K, 1272 kPa, x1 = 0.6244) was 0.293 ± 0.0287 kcal/mol. It also gave an excess molar enthalpy (353.15 K, 1272 kPa, x1 = 0.6949) of 0.324 ± 0.00454 kcal/mol, an excess molar enthalpy (353.15 K, 1272 kPa, x1 = 0.8258) of 0.287 ± 0.0454 kcal/mol and an excess molar enthalpy (353.15 K, 1272 kPa, x1 = 0.8781) of 0.225 ± 0.0335 kcal/mol. It also gave an excess molar enthalpy (353.15 K, 1272 kPa, x1 = 0.9359) of 0.141 ± 0.0789 kcal/mol.
In the case of `CC(=O)O` [acetic acid] + CCO, the excess molar enthalpy (323.15 K, 1548 kPa, x1 = 0.0247) is reported as 0.0108 ± 0.00813 kcal/mol, the excess molar enthalpy (323.15 K, 1548 kPa, x1 = 0.0493) is reported as 0.0202 ± 0.0108 kcal/mol and the excess molar enthalpy (323.15 K, 1548 kPa, x1 = 0.0987) is reported as 0.0347 ± 0.0146 kcal/mol. For the same molecule, the excess molar enthalpy (323.15 K, 1548 kPa, x1 = 0.1729) was 0.0468 ± 0.00693 kcal/mol, the excess molar enthalpy (323.15 K, 1548 kPa, x1 = 0.2473) was 0.0514 ± 0.00167 kcal/mol and the excess molar enthalpy (323.15 K, 1548 kPa, x1 = 0.3467) was 0.0507 ± 0.00263 kcal/mol. It also gave an excess molar enthalpy (323.15 K, 1548 kPa, x1 = 0.4464) of 0.0435 ± 0.00478 kcal/mol, an excess molar enthalpy (323.15 K, 1548 kPa, x1 = 0.5464) of 0.0354 ± 0.00526 kcal/mol and an excess molar enthalpy (323.15 K, 1548 kPa, x1 = 0.6467) of 0.0265 ± 0.00502 kcal/mol. For the same molecule, the excess molar enthalpy (323.15 K, 1548 kPa, x1 = 0.7473) was 0.0192 ± 0.0043 kcal/mol, the excess molar enthalpy (323.15 K, 1548 kPa, x1 = 0.8229) was 0.0145 ± 0.00406 kcal/mol and the excess molar enthalpy (323.15 K, 1548 kPa, x1 = 0.8987) was 0.0093 ± 0.00478 kcal/mol. It also gave an excess molar enthalpy (323.15 K, 1548 kPa, x1 = 0.9493) of 0.00504 ± 0.00382 kcal/mol and an excess molar enthalpy (323.15 K, 1548 kPa, x1 = 0.9746) of 0.0028 ± 0.00239 kcal/mol.
